Our source for the IC50 values is patent US11702422B2, “Imidazopyridazines as modulators of IL-17” (Janssen Pharmaceutica NV, priority 2020, dated 2023).

For experiment [1], the system named is IL-17A-induced G-CSF production in human normal keratinocyte (NHK). Nature of the experiment: NHK Assay: IL-17A-induced G-CSF production in human normal keratinocytes. Format: cell-based. The conditions noted are these: 24 h, adult normal human keratinocytes, IL-17A 5 ng/mL, simple average if tested more than once. In outline:
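Adult NHK, 3000-4000 cells/well; rhIL-17A + titrated cpd preincubated 1 h rt, then onto cells. Final: IL-17A 5 ng/mL, DMSO 0.2%, 5% FBS. 24 h, 37° C. G-CSF in supernatant by HTRF vs standard curve; IC50. Viability by CellTiter-Glo vs DMSO.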

Experiment [2] addresses IL-17A(FLAG-Tagged): IL-17RA(His-Tagged) (Homo sapiens, UniProt Q16552, K93Q). The experiment is described as follows: IL-17A(FLAG-Tagged): IL-17RA(His-Tagged) Binding Disruption Eu-HTRF Assay. The conditions noted are these: IL-17A/IL-17RA binding disruption, simple average if tested more than once. The method, boiled down:
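IC50 comes from a one-site competition fit of the HTRF 665/620 nm ratio. Compound dilutions (2-fold, 22 points) were held 1 h rt with FLAG-tagged IL-17A dimer, then His-tagged IL-17RA plus Eu-cryptate anti-FLAG and D2 anti-His antibodies were added for 2 h rt.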
In general terms: In TR-FRET formats the signal depends on donor and acceptor labels being close together.

Sequence of UniProt Q16552 (Q16552 with tags, fused parts or gaps K93Q): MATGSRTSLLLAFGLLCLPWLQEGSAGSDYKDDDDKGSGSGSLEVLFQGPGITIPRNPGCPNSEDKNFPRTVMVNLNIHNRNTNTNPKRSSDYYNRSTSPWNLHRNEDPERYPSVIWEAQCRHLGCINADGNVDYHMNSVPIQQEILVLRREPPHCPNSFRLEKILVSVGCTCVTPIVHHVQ

Usually IC50 stands for the midpoint of a concentration-inhibition curve. For the compound `CC(C)C(NC(=O)CC1CC(F)(F)C1)c1cnn2cc([C@@H](NC(=O)c3nonc3C3CC3)C3CCC(F)(F)CC3)nc2c1` (single isomer, unassigned) [Example 512, 4-Cyclopropyl-N—((S)-(7-((S*)-1-(2-(3,3-difluorocyclobutyl)acetamido)-2-methylpropyl)imidazo[1,2-b]pyridazin-2-yl)(4,4-difluorocyclohexyl)methyl)-1,2,5-oxadiazole-3-carboxamide], the IC50 in experiment [1] (Homo sapiens, Keratinocyte) was found to be 35 nM; in experiment [2] it was 30 nM.
As to `O=C(CCC(F)(F)F)N[C@@H](c1cnn2cc([C@@H](NC(=O)c3cncc(C(F)F)c3)C3CCC(F)(F)CC3)nc2c1)C1CC1` [Example 455, N—((S)-(7-((R)-Cyclopropyl(4,4,4-trifluorobutanamido)methyl)imidazo[1,2-b]pyridazin-2-yl)(4,4-difluorocyclohexyl)methyl)-5-(difluoromethyl)nicotinamide], the half-inhibitory concentration (IC50) in experiment [1] (Homo sapiens, Keratinocyte) was 850 nM; in experiment [2], 130 nM.
For the compound `CC(C)(O)c1nonc1C(=O)N[C@H](c1cn2ncc(C(NC(=O)CC3CC(F)(F)C3)C3CCC3)cc2n1)C1CCC(F)(F)CC1` (single isomer, unassigned) [Example 499, N—((S)-(7-((R*)-Cyclobutyl(2-(3,3-difluorocyclobutyl)acetamido)methyl)imidazo[1,2-b]pyridazin-2-yl)(4,4-difluorocyclohexyl)methyl)-4-(2-hydroxypropan-2-yl)-1,2,5-oxadiazole-3-carboxamide], the IC50 in experiment [1] (Homo sapiens, Keratinocyte) stood at 160 nM; in experiment [2], 180 nM.
Take `Cc1cncc(C(=O)N[C@H](c2cn3ncc([C@H](NC(=O)CCC(F)(F)F)C4CC4)cc3n2)C2CCC(F)(F)CC2)c1` [Example 454, N—((S)-(7-((R)-Cyclopropyl(4,4,4-trifluorobutanamido)methyl)imidazo[1,2-b]pyridazin-2-yl)(4,4-difluorocyclohexyl)methyl)-5-methylnicotinamide]: the IC50 in experiment [1] (Homo sapiens, Keratinocyte) amounted to 3400 nM; in experiment [2], 320 nM.
As for `O=C(CCC(F)(F)F)N[C@@H](c1cnn2cc([C@@H](NC(=O)c3nnn(C4CC4)c3C(F)F)C3CCC(F)(F)CC3)nc2c1)C1CC1` [Example 110, 1-Cyclopropyl-N—((S)-(7-((R)-cyclopropyl(4,4,4-trifluorobutanamido)methyl)imidazo[1,2-b]pyridazin-2-yl)(4,4-difluorocyclohexyl)methyl)-5-(difluoromethyl)-1H-1,2,3-triazole-4-carboxamide], the half-inhibitory concentration (IC50) was over 20000 nM in experiment [1] (Homo sapiens, Keratinocyte) and 410 nM in experiment [2].
Consider `O=C(CCC(F)(F)F)N[C@@H](c1cnn2cc([C@@H](NC(=O)c3ccncn3)C3CCC(F)(F)CC3)nc2c1)C1CC1` [Example 207, N—((S)-(7-((R)-Cyclopropyl(4,4,4-trifluorobutanamido)methyl)imidazo[1,2-b]pyridazin-2-yl)(4,4-difluorocyclohexyl)methyl)pyrimidine-4-carboxamide], for which the IC50 in experiment [1] (Homo sapiens, Keratinocyte) was determined as 8400 nM; in experiment [2], 1800 nM.
`O=C(CCC(F)(F)F)N[C@@H](c1cnn2cc([C@@H](NC(=O)c3ccnn3C(F)F)C3CCC(F)(F)CC3)nc2c1)C1CC1` [Example 67, N—((S)-(7-((R)-Cyclopropyl(4,4,4-trifluorobutanamido)methyl)imidazo[1,2-b]pyridazin-2-yl)(4,4-difluorocyclohexyl)methyl)-1-(difluoromethyl)-1H-pyrazole-5-carboxamide]: the IC50 in experiment [1] (Homo sapiens, Keratinocyte) amounted to 180 nM; in experiment [2], 82 nM.
On to `CC(C)n1nccc1C(=O)N[C@H](c1cn2ncc([C@H](NC(=O)CC(C)(C)C(F)(F)F)C3CC3)cc2n1)C1CCC(F)(F)CC1` [Example 254, N—((S)-(7-((R)-Cyclopropyl(4,4,4-trifluoro-3,3-dimethylbutanamido)methyl)imidazo[1,2-b]pyridazin-2-yl)(4,4-difluorocyclohexyl)methyl)-1-isopropyl-1H-pyrazole-5-carboxamide], for which the IC50 was determined as 200 nM in experiment [1] (Homo sapiens, Keratinocyte) and 290 nM in experiment [2].
Take `O=C(CCC(F)(F)F)NC(c1cnn2cc([C@@H](NC(=O)c3cnn(CC(F)(F)F)n3)C3CCC(F)(F)CC3)nc2c1)C1CC1` (single isomer, unassigned) [Example 27, N—((S)-(7-((R*)-Cyclopropyl(4,4,4-trifluorobutanamido)methyl)imidazo[1,2-b]pyridazin-2-yl)(4,4-difluorocyclohexyl)methyl)-2-(2,2,2-trifluoroethyl)-2H-1,2,3-triazole-4-carboxamide]: the IC50 in experiment [1] (Homo sapiens, Keratinocyte) amounted to 650 nM; in experiment [2] it was 100 nM.
On the same counts, the results for `Cc1nonc1C(=O)N[C@H](c1cn2ncc([C@H](NC(=O)[C@H]3CC[C@@H]3F)C3CC3)cc2n1)C1CCC(F)(F)CC1` (relative stereo) [Example 334, N—((S)-(7-((R)-Cyclopropyl((1R*,2S*)-2-fluorocyclobutane-1-carboxamido)methyl)imidazo[1,2-b]pyridazin-2-yl)(4,4-difluorocyclohexyl)methyl)-4-methyl-1,2,5-oxadiazole-3-carboxamide] are over 20000 nM and 4400 nM.
With `O=C(CCC(F)(F)F)N[C@@H](c1cnn2cc([C@@H](NC(=O)c3ccnc(C(F)(F)F)c3)C3CCC(F)(F)CC3)nc2c1)C1CC1` [Example 194, N—((S)-(7-((R)-Cyclopropyl(4,4,4-trifluorobutanamido)methyl)imidazo[1,2-b]pyridazin-2-yl)(4,4-difluorocyclohexyl)methyl)-2-(trifluoromethyl)isonicotinamide], the IC50 in experiment [1] (Homo sapiens, Keratinocyte) came to 1600 nM; in experiment [2], 140 nM.
On to `Cc1nonc1C(=O)N[C@H](c1cn2ncc([C@H](NC(=O)[C@H](F)[C@H](C)C(F)(F)F)C3CC3)cc2n1)C1CCC(F)(F)CC1` (relative stereo) [Example 353, N—((S)-(7-((R)-Cyclopropyl((2R*,3S*)-2,4,4,4-tetrafluoro-3-methylbutanamido)methyl)imidazo[1,2-b]pyridazin-2-yl)(4,4-difluorocyclohexyl)methyl)-4-methyl-1,2,5-oxadiazole-3-carboxamide], for which the IC50 in experiment [1] (Homo sapiens, Keratinocyte) came out at 970 nM; in experiment [2], 630 nM.
For the compound `O=C(CCC(F)(F)F)N[C@@H](c1cnn2cc([C@@H](NC(=O)c3cncc(C4CCC4)c3)C3CCC(F)(F)CC3)nc2c1)C1CC1` [Example 416, 5-Cyclobutyl-N—((S)-(7-((R)-cyclopropyl(4,4,4-trifluorobutanamido)methyl)imidazo[1,2-b]pyridazin-2-yl)(4,4-difluorocyclohexyl)methyl)nicotinamide], the IC50 in experiment [1] (Homo sapiens, Keratinocyte) stood at 550 nM; in experiment [2], 62 nM.
For the compound `O=C(CCC(F)(F)F)N[C@@H](c1cnn2cc([C@@H](NC(=O)c3cnnn3CC3CC(F)(F)C3(F)F)C3CCC(F)(F)CC3)nc2c1)C1CC1` (stereo partly drawn) [Example 94, N—((S)-(7-((R)-Cyclopropyl(4,4,4-trifluorobutanamido)methyl)imidazo[1,2-b]pyridazin-2-yl)(4,4-difluorocyclohexyl)methyl)-1-((2,2,3,3-tetrafluorocyclobutyl)methyl)-1H-1,2,3-triazole-5-carboxamide], the IC50 worked out at 150 nM in experiment [1] (Homo sapiens, Keratinocyte) and 110 nM in experiment [2].
On to `COc1nccc(C(=O)N[C@H](c2cn3ncc([C@H](NC(=O)CCC(F)(F)F)C4CC4)cc3n2)C2CCC(F)(F)CC2)n1` [Example 211, N—((S)-(7-((R)-Cyclopropyl(4,4,4-trifluorobutanamido)methyl)imidazo[1,2-b]pyridazin-2-_yl)(4,4-difluorocyclohexyl)methyl)-2-methoxypyrimidine-4-carboxamide], for which the IC50 is over 20000 nM in experiment [1] (Homo sapiens, Keratinocyte) and 4300 nM in experiment [2].
Turning to `Cc1ccnc(C(=O)N[C@H](c2cn3ncc([C@H](NC(=O)CCC(F)(F)F)C4CC4)cc3n2)C2CCC(F)(F)CC2)c1` [Example 206, N—((S)-(7-((R)-Cyclopropyl(4,4,4-trifluorobutanamido)methyl)imidazo[1,2-b]pyridazin-2-yl)(4,4-difluorocyclohexyl)methyl)-4-methylpicolinamide], the half-maximal inhibitory concentration (IC50) was found to be 4000 nM in experiment [1] (Homo sapiens, Keratinocyte) and 540 nM in experiment [2].
For `Cc1nonc1C(=O)N[C@H](c1cn2ncc([C@H](NC(=O)C(C)(C)CC(F)F)C3CC3)cc2n1)C1CCC(F)(F)CC1` [Example 328, N—((S)-(7-((R)-Cyclopropyl(4,4-difluoro-2,2-dimethylbutanamido)methyl)imidazo[1,2-b]pyridazin-2-yl)(4,4-difluorocyclohexyl)methyl)-4-methyl-1,2,5-oxadiazole-3-carboxamide], the IC50 was over 20000 nM in experiment [1] (Homo sapiens, Keratinocyte) and 2400 nM in experiment [2].
In the case of `CC(C)(O)c1nonc1C(=O)N[C@H](c1cn2ncc([C@H](NC(=O)CCC(F)(F)F)C3CC3)cc2n1)C1CCC(F)(F)CC1` [Example 371, N—((S)-(7-((R)-Cyclopropyl(4,4,4-trifluorobutanamido)methyl)imidazo[1,2-b]pyridazin-2-yl)(4,4-difluorocyclohexyl)methyl)-4-(2-hydroxypropan-2-yl)-1,2,5-oxadiazole-3-carboxamide], the IC50 in experiment [1] (Homo sapiens, Keratinocyte) amounted to 450 nM; in experiment [2], 140 nM.
Consider `CCC(CC(=O)N[C@@H](c1cnn2cc([C@@H](NC(=O)c3nonc3C)C3CCC(F)(F)CC3)nc2c1)C1CC1)CC(F)(F)F` (single isomer, unassigned) [Example 342, N—((S)-(7-((R)-Cyclopropyl((R*)-3-ethyl-5,5,5-trifluoropentanamido)methyl)imidazo[1,2-b]pyridazin-2-yl)(4,4-difluorocyclohexyl)methyl)-4-methyl-1,2,5-oxadiazole-3-carboxamide], for which the concentration for half-maximal inhibition (IC50) worked out at 1400 nM in experiment [1] and 340 nM in experiment [2].
